# Laboratory results published in patent US6630161B1, “Adjuvant composition and methods for its use” (Ribi Immunochem Research, Inc., priority 1998, dated 2003).
# Test: Histamine type response after intravenous administration of surfactants
# Type: in vivo
# Settings: dogs
molecule,measurement,value
CCCCCCCC/C=C\CCCCCCCC(=O)OCCOCC(OCCO)C1OCC(OCCO)C1OCCO (centres unmarked) [Tween 80],response when administered intravenously,histamine type response
polysorbate 80,response when administered intravenously,histamine type response
